We go through eight compounds from PubChem BioAssay (NCI).

Each structure is given as a SMILES string.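 A five-concentration, 48-hour dose response in 96-well plates underlies each endpoint, interpolated linearly between surrounding concentrations. At the GI50, growth is halved. The concentration for full growth arrest is given as TGI.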 Where only a bound is given, the exact number is not on record here.

Among the test systems are A549 NSCLC; CCRF-CEM leukemia; HCC-2998 colon; HOP-92 NSCLC; K-562 leukemia; M14 melanoma; NCI/ADR-RES ovarian; OVCAR-4 ovarian; SN12C renal; UO-31 renal.
Holding throughout (assay): NCI tumour cell line growth inhibition, 48 h

Take `CC(=Nc1ccccc1)C1=C(O)C(Cc2ccccc2)NC1=O` (stereo not given): the GI50 with A549 NSCLC was 0.052 µM; in the assay with CCRF-CEM leukemia, 0.0431 µM; in the assay with HCC-2998 colon, 0.0779 µM; in the assay on HOP-92 NSCLC it was 0.0515 µM; in the assay on K-562 leukemia, 0.0203 µM; in the assay with M14 melanoma, 0.0248 µM. The GI50 in the assay with NCI/ADR-RES ovarian was 0.03 µM; in the assay with OVCAR-4 ovarian, 0.115 µM; in the assay with SN12C renal it was 0.227 µM; in the assay with UO-31 renal it was 0.0832 µM. For the same compound, the TGI is more than 100 µM in the assay on A549 NSCLC; more than 100 µM in the assay with CCRF-CEM leukemia; 0.64 µM in the assay with HCC-2998 colon; more than 100 µM with HOP-92 NSCLC; more than 100 µM in the assay on K-562 leukemia; 0.102 µM with M14 melanoma. The TGI in the assay on NCI/ADR-RES ovarian was 0.117 µM; in the assay with OVCAR-4 ovarian, more than 100 µM; with SN12C renal it was more than 100 µM; with UO-31 renal, more than 100 µM.
For `Cc1occc1C(=S)Nc1ccc(Cl)c(C(=O)OC(C)C2CC2)c1` (stereo not given), the TGI was more than 100 µM in the assay with A549 NSCLC; more than 100 µM in the assay on CCRF-CEM leukemia; 39.5 µM with HCC-2998 colon; 51.5 µM in the assay with HOP-92 NSCLC; 53.4 µM in the assay with M14 melanoma; 65.1 µM in the assay with NCI/ADR-RES ovarian. The TGI in the assay with OVCAR-4 ovarian came to 40.5 µM; in the assay on SN12C renal, 41.6 µM; with UO-31 renal, 30.5 µM.
For the compound `COc1ccc(Cn2cc3c(c2-c2ccc(OC)cc2)CCc2cnoc2-3)cc1`, the GI50 is 0.582 µM with A549 NSCLC; 0.364 µM in the assay on CCRF-CEM leukemia; 0.846 µM in the assay on HCC-2998 colon; 1.12 µM in the assay on HOP-92 NSCLC; 0.349 µM in the assay with K-562 leukemia; 0.404 µM in the assay with M14 melanoma. In addition, the GI50 in the assay on NCI/ADR-RES ovarian is 0.27 µM; with OVCAR-4 ovarian, 0.93 µM; in the assay with SN12C renal it was 0.795 µM; in the assay on UO-31 renal, 0.797 µM. Besides, the TGI with A549 NSCLC is more than 100 µM; in the assay with CCRF-CEM leukemia it was more than 100 µM; in the assay with HCC-2998 colon, 5.92 µM; in the assay on HOP-92 NSCLC, more than 100 µM; with K-562 leukemia, more than 100 µM; in the assay on M14 melanoma, more than 33.2 µM. In addition, the TGI is 4.08 µM with NCI/ADR-RES ovarian, more than 100 µM with OVCAR-4 ovarian, more than 100 µM in the assay with SN12C renal and more than 100 µM in the assay with UO-31 renal.
With `O=C(O)c1cccc(N=Nc2c(S(=O)(=O)O)ccc3c2C(=O)c2ccccc2C3=O)c1O`, the TGI in the assay on A549 NSCLC, in the assay with CCRF-CEM leukemia, with HOP-92 NSCLC, with K-562 leukemia, in the assay with M14 melanoma and with NCI/ADR-RES ovarian was more than 100 µM throughout. For the same compound, the TGI with OVCAR-4 ovarian, in the assay with SN12C renal and in the assay on UO-31 renal was more than 100 µM in each case.
As for `CN(CC(=O)N(Cc1ccc(C2CCCCC2)cc1)c1ccc(C(=O)O)c(O)c1)S(=O)(=O)c1c(F)c(F)c(F)c(F)c1F`, the GI50 in the assay on A549 NSCLC was 14.9 µM; in the assay on CCRF-CEM leukemia, 1.84 µM; with HCC-2998 colon, 2.37 µM; in the assay with HOP-92 NSCLC, 1.95 µM; in the assay on K-562 leukemia it was 2.05 µM; in the assay on M14 melanoma, 3.07 µM. The GI50 was 17.2 µM in the assay on NCI/ADR-RES ovarian, 14 µM in the assay on OVCAR-4 ovarian, 6.74 µM in the assay on SN12C renal and 12 µM with UO-31 renal. The TGI with A549 NSCLC was 31.7 µM; with CCRF-CEM leukemia it was 4.69 µM; with HCC-2998 colon, 5.72 µM; with HOP-92 NSCLC, 8.91 µM; in the assay with K-562 leukemia, 4.57 µM; with M14 melanoma, 13 µM. The TGI is 38.1 µM in the assay with NCI/ADR-RES ovarian, 27.8 µM in the assay on OVCAR-4 ovarian, 24.4 µM in the assay on SN12C renal and 25.8 µM with UO-31 renal.
For `COc1cc(O)c(C(=O)/C=C/c2ccc(O)cc2)c(O)c1[C@@H]1C[C@H](CCc2ccc(O)cc2)O[C@H](c2ccc(O)cc2)C1`, the GI50 with CCRF-CEM leukemia is 3.28 µM; in the assay with HCC-2998 colon it was 2.25 µM; in the assay with HOP-92 NSCLC it was 2 µM; with M14 melanoma, 3.48 µM; in the assay on NCI/ADR-RES ovarian, 3.72 µM; in the assay with OVCAR-4 ovarian, 3.35 µM. Also, the GI50 in the assay with SN12C renal was 4.36 µM; in the assay with UO-31 renal it was 3.17 µM. Further, the TGI in the assay with CCRF-CEM leukemia came to 10.6 µM; in the assay on HCC-2998 colon, 4.02 µM; in the assay with HOP-92 NSCLC, 5.92 µM; in the assay on M14 melanoma, 12.2 µM; in the assay on NCI/ADR-RES ovarian, 14.4 µM; in the assay on OVCAR-4 ovarian it was 16.8 µM. For the same compound, the TGI turned out to be 20.3 µM in the assay with SN12C renal and 14.1 µM in the assay with UO-31 renal.
In the case of `CCC1CCc2nc3sc(C(=O)Nc4cccc(F)c4)c(N)c3cc2C1` (stereo not given), the GI50 in the assay with A549 NSCLC was more than 100 µM; in the assay with CCRF-CEM leukemia, 1.79 µM; with HCC-2998 colon it was more than 100 µM; in the assay with HOP-92 NSCLC, more than 100 µM; with M14 melanoma it was 0.402 µM; with NCI/ADR-RES ovarian it was more than 100 µM. In addition, the GI50 in the assay with OVCAR-4 ovarian, in the assay on SN12C renal and in the assay with UO-31 renal was more than 100 µM in each case. Further, the TGI in the assay on A549 NSCLC, in the assay on CCRF-CEM leukemia, in the assay on HCC-2998 colon, with HOP-92 NSCLC, in the assay with M14 melanoma and with NCI/ADR-RES ovarian was more than 100 µM throughout. The TGI in the assay on OVCAR-4 ovarian, in the assay on SN12C renal and with UO-31 renal was more than 100 µM each time.
`COc1cc2c3c(n(CCCI)c(=O)c2cc1OC)-c1cc2c(cc1C3=O)OCO2`: the GI50 is 2.5 µM with A549 NSCLC; 0.873 µM with CCRF-CEM leukemia; 5.61 µM with HCC-2998 colon; more than 100 µM with HOP-92 NSCLC; 2.27 µM in the assay with K-562 leukemia; 3.05 µM with M14 melanoma. For the same compound, the figures for the GI50 in the assay on NCI/ADR-RES ovarian, in the assay with OVCAR-4 ovarian and in the assay on UO-31 renal were 27.3 µM, 17.2 µM and 2.53 µM, respectively. Also, the TGI with A549 NSCLC, in the assay on CCRF-CEM leukemia, in the assay with HCC-2998 colon, in the assay with HOP-92 NSCLC, in the assay on K-562 leukemia and in the assay on M14 melanoma was more than 100 µM throughout. For the same compound, the TGI with NCI/ADR-RES ovarian, in the assay on OVCAR-4 ovarian and with UO-31 renal was more than 100 µM each time.
